Measurements reported in patent US20050130203A1, “Novel GABAB receptor DNA sequences” (Board of Regents, The University of Texas System, priority 1998, published 2005).

Experiments:
HG20 [1] = target: T1, HG20 (Homo sapiens, UniProt O75899)
HG20 [2] = target: T1, HG20; remark: listed apart in the source

T1 sequence (O75899 52-941): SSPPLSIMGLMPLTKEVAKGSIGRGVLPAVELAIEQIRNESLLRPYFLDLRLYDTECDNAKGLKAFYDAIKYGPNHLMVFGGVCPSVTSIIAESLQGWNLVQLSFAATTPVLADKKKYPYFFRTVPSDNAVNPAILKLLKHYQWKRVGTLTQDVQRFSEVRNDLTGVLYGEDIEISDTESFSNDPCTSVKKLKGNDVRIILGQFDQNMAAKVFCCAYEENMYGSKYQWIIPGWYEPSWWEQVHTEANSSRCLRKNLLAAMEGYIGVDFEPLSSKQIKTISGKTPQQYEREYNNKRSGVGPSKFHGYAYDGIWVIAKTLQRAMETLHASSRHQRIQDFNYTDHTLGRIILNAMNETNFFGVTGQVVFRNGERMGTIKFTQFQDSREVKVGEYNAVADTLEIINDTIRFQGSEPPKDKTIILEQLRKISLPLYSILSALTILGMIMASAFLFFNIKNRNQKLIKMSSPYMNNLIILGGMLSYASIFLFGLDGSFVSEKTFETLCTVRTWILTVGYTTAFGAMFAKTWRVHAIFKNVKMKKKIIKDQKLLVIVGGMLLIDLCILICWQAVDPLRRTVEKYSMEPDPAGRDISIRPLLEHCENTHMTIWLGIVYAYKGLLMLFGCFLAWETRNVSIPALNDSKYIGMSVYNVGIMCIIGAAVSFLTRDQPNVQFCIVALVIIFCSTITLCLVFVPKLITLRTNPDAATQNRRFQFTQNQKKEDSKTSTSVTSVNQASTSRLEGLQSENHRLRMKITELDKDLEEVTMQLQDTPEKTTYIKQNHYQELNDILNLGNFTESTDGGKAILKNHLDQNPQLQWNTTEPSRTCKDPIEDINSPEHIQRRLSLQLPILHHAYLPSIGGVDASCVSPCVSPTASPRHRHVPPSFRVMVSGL

Compound	pigment aggregation or dispersion response (HG20 [1])	activity in Xenopus melanophore functional assay (HG20 [1])	activity in Xenopus oocyte functional assay (HG20 [2])
NC/C=C\C(=O)O [cis-4-aminocrotonic acid]	no pigment aggregation or dispersion response	–	–
N[C@@H](CCC(=O)O)C(=O)O [L-Glutamate, (L)-glutamic acid]	no pigment aggregation or dispersion response	no activity	no activity
(−)Baclofen	no pigment aggregation or dispersion response	no activity	no activity
O=S(=O)(O)C1CCNCC1 [piperidine-4-sulfonic acid]	no pigment aggregation or dispersion response	–	–
